Results taken from patent US20250092399A1, “GENE THERAPY TARGETING THE NEONATAL FORM OF NAV1.5 FOR TREATING CANCER” (Celex Oncology Innovations Limited, priority 2018, published 2025).
pIC50: −log10 of the molar value. Several values for one entry are separate records, joined by “and”; a condition that tells them apart may be missing. Equal values may be shown once. Read-outs that look alike come from different tables or passages of the source.

Tests used:
[1] = system: Nav1.5 splice variant (neonatal and adult); details: cited from earlier work
[2] = system: SW620 cells; experiment: Cell viability (trypan blue exclusion) and proliferation (MTT); format: cell-based, human
Procedure: Cellular viability (toxicity) and proliferation were quantified as described previously (Fraser et al., 1999, 2003b; Grimes et al., 1995). Briefly, cells were seeded into 35 mm plates at 3.5×10^4/plate (for toxicity) or 24-well plates at 2× 10^4/well (for proliferation) and allowed to settle overnight. The cells were incubated under control conditions or treated with the drug, with a change of medium every 24 h. Cell viability was determined by trypan blue exclusion assay. Proliferation was determined by the colorimetric 3-(4,5-dimethylthiazol-2-yl)-2,5-diphenyltetrazolium bromide (MTT) assay. A ‘standard curve’ was constructed showing linearity over the experimental range. Each biological repeat (treatment and control) was performed in triplicate.

[3] = system: nNav1.5 mRNA; experiment: Real-time RT-PCR of nNav1.5 mRNA levels in SW620 cells; format: cell-based, human; details: for decrease in nNav1.5 mRNA levels in comparison to c-siRNA: 40 nM siRNA, 90 h after transfection
Procedure: Steps for polymerase chain reactions (PCRs) were as described before (Fraser et al., 2005). Conventional PCRs were performed using HotStarTaq Plus technology (Qiagen Ltd, Manchester, UK) in a Primus PCR machine (MWG-Biotech, Eurofins Genomics, Ebersberg, Germany). Quantitative real-time PCRs were carried out utilising SYBR Green technology (Qiagen) and a DNA Engine Opticon 2 system (MJ Research, Bio-Rad Laboratories Ltd, Hamel Hempstead, UK). Duplicate reactions on each sample were carried out simultaneously for target and reference genes. Control PCRs were carried out routinely by including non-target (-RT) reactions and monitoring melting curves. The primer pairs used were as follows:
The mRNA levels were quantified using the comparative 2^−ΔΔC(t) method (Livak and Schmittgen, 2001).
(§1) Lipofectamine 2000 reagent (Invitrogen) was used as the transfection agent and the protocol was applied according to the manufacturer's instructions. […] Electrophysiological recordings of siRNA-treated cells were also performed in parallel at given time points and in random order. For these treatments, recordings were made from 19-37 cells from ≥4 different transfections with matching controls.

[4] = system: SW620 cells; experiment: Matrigel invasion assay; format: cell-based, human; details: for reduction in number of invaded cells compared to c-siRNA: 40 nM siRNA, invasion over 48 h
Procedure: For hypoxia, cells were maintained as above but in 1% O2 for up to 120 h in a dedicated incubator (Micro Galaxy, RS Biotech Laboratory Equipment Ltd, Irvine, UK).
as §1
Thus, (i) insert filters (with 8 μm pores) were coated with 50 µl of 0.21 mg/ml Matrigel (BD Biosciences, Bedford, MA, USA); (ii) the chemotactic gradient was 0.1-10% FBS; and (iii) the cells were serum-starved for 24 hours and (iv) 10^5 cells were seeded onto each filter. After 48 hours, the insert was swabbed and then stained with crystal violet. The invaded cells in 12 non-overlapping fields of view were counted under ×400 magnification. […] Each treatment condition was tested 5-8 times.

[5] = system: nNav1.5 protein; experiment: Western blot of nNav1.5 protein expression (NESO-pAb); format: cell-based, human
Procedure: Cells were washed with PBS containing 0.5 mM NaF, 0.1 mM Na3 VO4 (Sigma-Aldrich) and lysed in RIPA buffer (0.5M Tris-HCl, pH 7.4, 1.5M NaCl, 2.5% deoxycholic acid, 10% NP-40, 10 mM EDTA) (Merck-Millipore Ltd, Watford, UK) supplemented with an EDTA-free protease inhibitor cocktail (Roche Products Ltd, Welwyn Garden City, UK). Then, cells were vortexed for 30 mins at 4° C. The lysate was centrifuged (15,000 g) at 4° C. and supernatant collected for measurement of the protein concentration by a standard Bradford assay (Bio-Rad protein assay, Bio-Rad). After 15 minutes at 70° C. in SDS loading buffer (62.5 mM Tris-HCl, 20% glycerol, 2% SDS, 100 mM DTT, 0.0025% bromphenol blue, 10% B-mercaptoethanol; pH 6.8), 50 μg of protein per lane was separated by 7.5% SDS-polyacrylamide gel electrophoresis and electroblotted onto 0.45 μm nitrocellulose membrane (Thermo Scientific). Equal protein loading was controlled by Ponceau S staining (Sigma-Aldrich). Membranes were ‘blocked’ with 5% bovine serum albumin (BSA) in TBS+0.1% Tween-20 for 1 hour and probed for 20 hours with the following primary antibodies (diluted in TBS+0.1% Tween 20+1% BSA): i) NESO-pAb antibody for nNav1.5 (1 μl/ml); and (ii) anti-actinin antibody (1 μl/ml) as loading control (Sigma-Aldrich). […]

[6] = target: persistent current, INaP, of VGSC, especially Nav1.5 (Canis lupus familiaris, UniProt Q865W3); details: Antzelevitch et al., 2004; read-out: IC50 for block of hypoxia-induced persistent current INaP; cited from earlier work
[7] = system: VGSC currents (nNav1.5 / aNav1.5) in SW620 cells; experiment: Whole-cell patch-clamp recording of VGSC currents in siRNA-transfected SW620 cells; format: cell-based, human; details: for proportion of cells demonstrating VGSC currents / peak VGSC current density: SW620 cells after siRNA transfection; for peak VGSC current density: median (25%-75% interquartile range); for Activation V1/2 (half-activation voltage) / Activation k (activation slope factor) / Inactivation V1/2 (half-inactivation voltage) / Inactivation k (inactivation slope factor) / Tinactivation (inactivation time constant) / Tpeak (time to peak): SW620 cells, 40 nM siRNA, 96 h transfection, 24 h serum starvation, mean ± SEM
From the text: Details of the patch pipettes, solutions, and the whole-cell recording protocols were as described previously (e.g. Laniado et al., 1997; 2001; Fraser et al., 2003a; Grimes et al, 1995). In brief, patch pipettes (tip resistances, ˜5 M Ω) were filled with a solution designed to block the outward K^+ currents; the composition was as follows (in mM): NaCl 5, CsCl 145, MgCl2 2, CaCl2) 1, HEPES 10 and EGTA 11, adjusted to pH 7.4 with 1 M CsOH. The estimated intracellular free Ca^2+ concentration was ˜15 nM (Laniado et al., 2001). Whole-cell membrane currents were recorded from cells that appeared ‘isolated’ in culture, using an Axopatch 200B amplifier (Axon Instruments, CA, USA). Analogue signals were filtered at 10 kHz using a low-pass Bessel filter, and series resistance errors were compensated by >90%. Electrophysiological signals were sampled at 50 kHz and digitised using an interface (Digidata 1200). Data acquisition and analysis of whole-cell currents were performed using pClamp software (Axon Instruments). A holding potential of −100 mV was applied, unless indicated otherwise. Standard voltage-clamp protocols were used to study the electrophysiological properties of the VGSC currents. There was a noticeable decrease in current amplitude with time in culture, also apparent in immunocytochemistry (FIG. 7). All routine recordings were done 24 hours after (re) plating and 24 hours of serum starvation (to match the condition of the invasion assays).
Conductance-voltage relationships were determined using the equation:
[formula] • where G is the conductance; I the current amplitude; V the test pulse; and Vrev the theoretical Na^+ reversal potential. Normalized curves for voltage dependence of steady-state activation and inactivation were fitted to a Boltzmann function of the form:
[formula] • where Gmax is the maximal conductance; Vm is the membrane voltage; V1/2 is the voltage at which the current is half activated/inactivated, and k is the slope factor of voltage sensitivity. For the time course of recovery from inactivation, the data was plotted as a function of recovery time and fitted to the following single exponential equation:
[formula] • where I is normalized current, t is time, t is the time constant, A is the amplitude of the normalized current, and C is the asymptote. More details can be found in Onkal et al. (2008).
as §1

persistent current, INaP, of VGSC, especially Nav1.5, sequence (Q865W3 1-2013): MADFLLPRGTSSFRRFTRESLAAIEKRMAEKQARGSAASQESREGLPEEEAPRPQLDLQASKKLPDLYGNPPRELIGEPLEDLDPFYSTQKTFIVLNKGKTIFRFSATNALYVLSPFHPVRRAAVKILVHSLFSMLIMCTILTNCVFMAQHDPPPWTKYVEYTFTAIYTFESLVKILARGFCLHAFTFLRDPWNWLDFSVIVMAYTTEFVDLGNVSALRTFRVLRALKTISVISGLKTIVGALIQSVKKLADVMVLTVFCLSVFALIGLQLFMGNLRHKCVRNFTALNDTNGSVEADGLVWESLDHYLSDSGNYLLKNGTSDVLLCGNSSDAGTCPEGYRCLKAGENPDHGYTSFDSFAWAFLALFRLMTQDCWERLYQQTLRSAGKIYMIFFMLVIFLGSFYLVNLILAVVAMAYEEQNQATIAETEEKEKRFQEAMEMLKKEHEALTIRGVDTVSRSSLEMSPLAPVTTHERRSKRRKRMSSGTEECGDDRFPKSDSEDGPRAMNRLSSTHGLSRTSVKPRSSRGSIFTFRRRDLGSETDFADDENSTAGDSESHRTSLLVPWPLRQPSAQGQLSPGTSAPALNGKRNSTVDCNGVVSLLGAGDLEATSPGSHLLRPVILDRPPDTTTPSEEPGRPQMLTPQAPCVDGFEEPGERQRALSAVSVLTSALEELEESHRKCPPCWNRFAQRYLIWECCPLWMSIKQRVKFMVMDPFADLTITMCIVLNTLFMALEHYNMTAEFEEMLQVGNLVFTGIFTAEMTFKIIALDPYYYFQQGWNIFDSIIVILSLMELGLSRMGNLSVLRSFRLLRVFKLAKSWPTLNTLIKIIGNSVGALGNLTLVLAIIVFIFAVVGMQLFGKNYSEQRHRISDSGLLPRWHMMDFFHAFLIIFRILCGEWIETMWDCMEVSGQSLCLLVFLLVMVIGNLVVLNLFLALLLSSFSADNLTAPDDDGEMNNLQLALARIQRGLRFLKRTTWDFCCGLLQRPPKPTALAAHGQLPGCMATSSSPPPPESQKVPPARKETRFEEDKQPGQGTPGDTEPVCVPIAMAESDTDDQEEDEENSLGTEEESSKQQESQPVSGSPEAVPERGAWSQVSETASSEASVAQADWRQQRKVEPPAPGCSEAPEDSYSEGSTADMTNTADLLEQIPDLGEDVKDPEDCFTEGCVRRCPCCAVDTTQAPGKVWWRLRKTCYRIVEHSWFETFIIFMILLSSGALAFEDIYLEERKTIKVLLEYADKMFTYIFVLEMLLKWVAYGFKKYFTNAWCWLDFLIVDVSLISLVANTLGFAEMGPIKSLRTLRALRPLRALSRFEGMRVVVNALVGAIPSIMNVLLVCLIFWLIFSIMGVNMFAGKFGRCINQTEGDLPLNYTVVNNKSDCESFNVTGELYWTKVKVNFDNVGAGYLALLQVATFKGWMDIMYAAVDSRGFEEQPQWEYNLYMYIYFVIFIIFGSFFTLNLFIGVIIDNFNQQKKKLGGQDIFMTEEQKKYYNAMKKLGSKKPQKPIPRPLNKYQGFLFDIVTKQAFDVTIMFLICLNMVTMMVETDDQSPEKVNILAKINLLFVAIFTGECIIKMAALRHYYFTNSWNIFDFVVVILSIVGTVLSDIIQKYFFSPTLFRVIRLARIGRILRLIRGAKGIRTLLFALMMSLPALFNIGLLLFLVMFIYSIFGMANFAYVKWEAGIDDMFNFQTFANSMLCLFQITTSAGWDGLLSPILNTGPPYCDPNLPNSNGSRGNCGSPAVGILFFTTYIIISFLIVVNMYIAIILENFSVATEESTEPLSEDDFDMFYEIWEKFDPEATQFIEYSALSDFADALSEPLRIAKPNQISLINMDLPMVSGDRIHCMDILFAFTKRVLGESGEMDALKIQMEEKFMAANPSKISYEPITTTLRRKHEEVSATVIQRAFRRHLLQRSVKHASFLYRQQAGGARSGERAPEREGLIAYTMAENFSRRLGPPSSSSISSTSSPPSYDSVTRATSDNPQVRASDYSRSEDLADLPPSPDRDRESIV

NC1=N[C@H](O)[C@H]2[C@H]3O[C@]4(O)O[C@@H]([C@@H](O)[C@@]2(N1)[C@@H]4O)[C@]3(O)CO [TTX, Tetrodotoxin]
block of currents generated by either Nav1.5 splice variant [1]: > 80% | effect on proliferation [2]: not affected | effect on hypoxia-induced increase of nNav1.5 mRNA expression [3]: blocked this increase | effect on nNav1.5 mRNA expression [3]: Lack of effect | effect of TTX on invasiveness [4]: no effect | effect on invasiveness [4]: no effect | reduction of invasiveness by TTX [4]: 32% and 34% | reduction of invasiveness cf. hypoxia control [4]: 45% | inhibition of invasiveness ([4]; 20 µM): 37% | effect on nNav1.5 protein expression [5]: no effect

COc1ccccc1OCC(O)CN1CCN(CC(=O)Nc2c(C)cccc2C)CC1 (stereo not drawn) [ranolazine]
effect on proliferation ([2]; up to 10 µM, normoxia or hypoxia (not shown)): not affected | effect on hypoxia-induced increase of nNav1.5 mRNA expression ([3]; 5 μM, hypoxia 1% O2 48 h, SW620 cells): blocked this increase | effect on nNav1.5 mRNA expression ([3]; 5 μM, normoxia, SW620 cells): Lack of effect | reduction in invasion cf. hypoxia control ([4]; 5 μM, hypoxia (1% O2, 72 h), SW620 cells): 37% | reduction in invasion ([4]; 5 μM, normoxia, SW620 cells): 9% | inhibition of invasion, dose dependence ([4]; 1-10 μM, hypoxia, control/c-siRNA-treated SW620 cells): dose-dependent manner with two-fold difference over 1-10 μM | effect on invasiveness in cells pre-treated with n3-siRNA ([4]; up to 10 μM, hypoxia, n3-siRNA pre-treated SW620 cells): no additional effect | effect on nNav1.5 protein expression ([5]; 5 μM, normoxia and hypoxia, SW620 cells): no effect | pIC50 [6]: 5.23

AGGUAGUGUAAUCGCCUUG (listed as RNA, chemistry not given here) [c-siRNA, non-targeting control siRNA supplied by Eurofins]
effect on invasiveness ([4]; SW620 cells, normoxia or hypoxia (1% O2, 72 h)): no effect

CUAGGCAAUUUGUCGGCUC [n1-siRNA]
decrease in nNav1.5 mRNA levels in comparison to c-siRNA ([3]; SW620 cells): 50±12% | reduction in number of invaded cells compared to c-siRNA ([4]; SW620 cells, normoxia): 64% | proportion of cells demonstrating VGSC currents [7]: 42% | peak VGSC current density [7]: 0.0 (0-3.1) pA/pF

GAGUCCUGAGAGCUCUAAA [n3-siRNA]
decrease in nNav1.5 mRNA levels in comparison to c-siRNA ([3]; SW620 cells): 32±10% | reduction in number of invaded cells compared to c-siRNA ([4]; SW620 cells, normoxia): 73% | hypoxia-induced increase in invasiveness ([4]; SW620 cells, hypoxia 1% O2 72 h, siRNA-treated): completely suppressed | proportion of cells demonstrating VGSC currents [7]: 51% | peak VGSC current density [7]: 1.0 (0-6.8) pA/pF | Activation V1/2 (half-activation voltage) [7]: −24.7 ± 2.0 mV | Activation k (activation slope factor) [7]: 6.1 ± 0.3 mV | Inactivation V1/2 (half-inactivation voltage) [7]: −86.5 ± 1.2 mV | Inactivation k (inactivation slope factor) [7]: −5.0 ± 0.4 mV | Tinactivation (inactivation time constant) [7]: 0.80 ± 0.10 ms | Tpeak (time to peak) [7]: 0.66 ± 0.04 ms

GUCUCAGCCUUACGCACCU (listed as RNA, chemistry not given here) [a-siRNA, siRNA targeting 'adult' Nav1.5 (aNav1.5)]
reduction in number of invaded cells compared to c-siRNA ([4]; SW620 cells, normoxia): 17% | proportion of cells demonstrating VGSC currents [7]: 58% | peak VGSC current density [7]: 3.5 (0-7.5) pA/pF | Activation V1/2 (half-activation voltage) [7]: −28.1 ± 1.7 mV | Activation k (activation slope factor) [7]: 6.7 ± 0.6 mV | Inactivation V1/2 (half-inactivation voltage) [7]: −95.6 ± 2.1 mV | Inactivation k (inactivation slope factor) [7]: −6.7 ± 0.7 mV | Tinactivation (inactivation time constant) [7]: 1.35 ± 0.19 ms | Tpeak (time to peak) [7]: 0.90 ± 0.06 ms

UAUCAUGGCGUAUGUAUCA [n2-siRNA]
decrease in nNav1.5 mRNA levels in comparison to c-siRNA ([3]; SW620 cells): 85±10% | reduction in number of invaded cells compared to c-siRNA ([4]; SW620 cells, normoxia): 45% | proportion of cells demonstrating VGSC currents [7]: 33% | peak VGSC current density [7]: 0.0 (0-2.4) pA/pF
